Where a SMILES comes first, the peptide text is derived from it.
Legend:
brain tumor capillaries = settings: intracarotid infusion; previous studies (6-9); cited from earlier work
RG2 gliomas = assay: Regional permeability (Ki) by quantitative autoradiography in rats with implanted RG2 gliomas; format: in vivo, rat; settings: for effect on tumor permeability 20 minutes after stopping the intracarotid infusion (in words): [14C]-dextran
Method: (§1) RG2 and C6 are cell lines derived from rat gliomas induced by ethylnitrosourea (17,18). The glioma cells were kept frozen until use, then thawed and maintained in a monolayer culture in F12 medium with 10% calf serum. The rats were anesthetized with intra-peritoneal ketamine (50 mg/kg). Glial tumors were implanted into the right hemisphere by intracerebral injections of 1×10^5 glioma cells in 5 μl F12 medium (1.2% methylcellulose) by a Hamilton syringe. The coordinates used were 5 mm lateral to the bregma, and 4.5 mm deep to the dural surface.
(§2) Seven or eight days after tumor implantation, the rats were anesthetized with intra-peritoneal urethane (1 g/kg) and a polyethylene catheter was inserted retrograde through the external carotid artery to the common carotid artery bifurcation ipsilateral to the tumor. The external carotid artery and pterygopalatine artery were then ligated. Both femoral veins were cannulated for administration of drugs or tracers. One femoral artery was cannulated to monitor systemic blood pressure and the other femoral artery was cannulated to withdraw arterial blood. Body temperature was maintained at 37° C. and arterial blood gases, blood pressure, and hematocrit were monitored.
The tumor-implanted rats were grouped by tracers and by tumor types. Bradykinin (Sigma Chemical Co., St. Louis, Mo.) or PBS (control) was infused into the right carotid artery at a rate of 53.3 μl/minute (10 μg/kg/minute) for 15 minutes. In regional permeability studies, 5 minutes after the start of the intracarotid infusion, […] of [^14 C]-AIB (MW 103, Dupon-New England Nuclear Co., Boston, Mass.) or [^14 C]-Dextran (MW 70,000, Dupon-New England Nuclear Co.) was injected as an intravenous bolus. A peristaltic withdrawal pump was used to withdraw femoral arterial blood at a constant rate of […] immediately after the injection of the tracer for the determination of serum radioactivity. Fifteen minutes after the start of intracarotid infusions, the animals were killed by decapitation and the brains were rapidly removed and frozen.
Bradykinin, zaprinast or bradykinin mixed with zaprinast was infused into the right carotid artery at a rate of 53.3 μl/minute for 15 minute. The rate of infusion of bradykinin and zaprinast was 10 μg/kg/minute and 1.67 mg/kg/minute ([…]) respectively. Injection of tracer, withdrawing of arterial blood, and other protocols were in the same manner as described above.
The duration of the effect of the intracarotid bradykinin with or without zaprinast infusion in RG2 glioma was examined at three different periods by changing the time of [^14 C]-dextran injection relative to intracarotid infusion of bradykinin with or without zaprinast.
The frozen brains were mounted onto pedestals with M-1 embedding matrix (Lipshaw, Pittsburgh, Pa.) and 20 μm coronal sections were cut with a cryotome. The sections were thawmounted onto cover slips and autoradiograms were generated by co-exposing the sections on Kodak XAR-5 film with tissue calibrated [^14 C]-standards (Amersham, Arlington Heights, Ill.) for 2 weeks. The sequential section was stained with hematoxylin for the correlation of areas of histologically verified tumor areas with autoradiograms. The regional radioactivity was measured in the tumor, BST (areas within 2 mm distance from the border of the tumor), right cortex (ipsilateral cortex), left cortex (contralateral cortex), right white matter, left white matter, right basal ganglia, and left basal ganglia. Quantitative analysis of the regional radioactivity was performed using a computer (Power Macintosh 7100) and the software, Image 1.55 (NIH).
For quantitative autoradiographic examination, the regional permeability in the brain and tumor tissues were expressed by the unidirectional transfer constant, Ki value (μl/g/minute) which was determined as described in References 21, 22, 23 and 24). […]

C6 gliomas = assay: Regional permeability (Ki) by quantitative autoradiography in rats with implanted C6 gliomas; format: in vivo, rat
Method: as §1, §2
The tumor-implanted rats were grouped by tracers and by tumor types. Bradykinin (Sigma Chemical Co., St. Louis, Mo.) or PBS (control) was infused into the right carotid artery at a rate of 53.3 μl/minute (10 μg/kg/minute) for 15 minutes. […] A peristaltic withdrawal pump was used to withdraw femoral arterial blood at a constant rate of […] immediately after the injection of the tracer for the determination of serum radioactivity. […]
The frozen brains were mounted onto pedestals with M-1 embedding matrix (Lipshaw, Pittsburgh, Pa.) and 20 μm coronal sections were cut with a cryotome. […] The regional radioactivity was measured in the tumor, BST (areas within 2 mm distance from the border of the tumor), right cortex (ipsilateral cortex), left cortex (contralateral cortex), right white matter, left white matter, right basal ganglia, and left basal ganglia. Quantitative analysis of the regional radioactivity was performed using a computer (Power Macintosh 7100) and the software, Image 1.55 (NIH).
For quantitative autoradiographic examination, the regional permeability in the brain and tumor tissues were expressed by the unidirectional transfer constant, Ki value (μl/g/minute) which was determined as described in References 21, 22, 23 and 24).
For all tracers, statistical comparison of regional Ki values or blood volume between same regions with/without bradykinin or zaprinast were determined using analysis of variance (ANOVA) followed by non-parametric analysis of Mann-Whitney's U test. […]

[1] = rat, in vivo
Text: as §2

[2] = Solubility of zaprinast in saline; format: physicochemical
Method: The bradykinin/bradykinin analog and zaprinast are preferably infused in the form of a pharmaceutical solution having a […] phosphate buffered saline solution as the carrier. The concentration of bradykinin in the solution is 10-40 μg/ml with the preferred concentration of zaprinast being on the order of 1 to 10 mg/ml for carotid artery administration. For intravenous administration, the concentration of bradykinin/bradykinin analog is preferably between about 15 μg/ml to 50 mg/ml with the preferred concentration of zaprinast being on the order of 2 mg/ml to 15 mg/ml. Zaprinast is not soluble directly in saline. Accordingly, it is preferred that the pharmaceutical solution be prepared by dissolving zaprinast in 1 M sodium hydroxide to form a concentrated solution of approximately 100 to 500 mg/ml zaprinast. This concentrated solution is then dissolved into phosphate buffered saline (PBS) to the final desired concentration. Bradykinin or the bradykinin analog is then added to the solution to form the final pharmaceutical preparation. The relative concentrations within the pharmaceutical preparation are adjusted as set forth above to provide a solution which is suitable for either carotid artery infusion or intravenous administration.

Structure (SMILES) | permeability in brain tumor capillaries vs normal brain capillaries (in words) (brain tumor capillaries) | transport (Ki) of either tracer in other normal brain / non-tumor regions (in words) (RG2 gliomas; RG2-bearing rats, [14C]-dextran and [14C]-AIB) | Ki for AIB in BST (brain within 2 mm of the tumor) (RG2 gliomas; RG2, brain surrounding tumor, intracarotid infusion 15 minutes) | Ki for dextran in BST (in words) (RG2 gliomas; RG2, brain surrounding tumor, vs control) | effect on tumor permeability 20 minutes after stopping the intracarotid infusion (in words) (RG2 gliomas; RG2 tumor, time course study) | Ki in tumors for [14C]-dextran, fold higher than in controls (RG2 gliomas; RG2 tumor, bradykinin 10 μg/kg/minute intracarotid vs PBS control) | Ki in tumors for [14C]-AIB (MW 103) (RG2 gliomas; RG2 tumor, intracarotid infusion 15 minutes (bradykinin 10 μg/kg/minute, zaprinast 1.67 mg/kg/minute), mean±SD) | transfer constant, Ki, in tumors for [14C]-dextran (MW 70,000) (RG2 gliomas; RG2 tumor, intracarotid infusion 15 minutes (bradykinin 10 μg/kg/minute, zaprinast 1.67 mg/kg/minute), tracer i.v. 5 minutes after start, mean±SD) | [14C]-dextran uptake into the tumor (Ki) 10 minutes after stopping the intracarotid infusion (RG2 gliomas; RG2 tumor, time course study) | transport (Ki) for either tracer in non-tumor regions (in words) (C6 gliomas; C6-bearing rats, [14C]-dextran and [14C]-AIB) | Ki in tumors for [14C]-dextran, fold higher than in controls (C6 gliomas; C6 tumor, bradykinin intracarotid vs PBS control) | bradykinin effect on tumor permeability (Ki) at 10 minutes after infusion (in words) (RG2 gliomas; RG2 tumor, FIG. 5 time course) | Ki values in RG2 tumors for both tracers (in words) (RG2 gliomas; zaprinast alone, intracarotid, [14C]-dextran and [14C]-AIB) | blood gas parameters or hemoglobin concentration (in words) [1] | Ki in tumors for [14C]-AIB (C6 gliomas; C6 tumor, intracarotid infusion 15 minutes (bradykinin 10 μg/kg/minute, zaprinast 1.67 mg/kg/minute)) | Ki values in C6 tumors for [14C]-dextran, increase with zaprinast alone (in words) (C6 gliomas; C6 tumor, zaprinast alone, intracarotid) | solubility in saline (in words) [2]
CCCCC/C=C\C\C=C/C=C/C=C/[C@@H](SC[C@H](NC(=O)CC[C@H](N)C(=O)O)C(=O)NCC(=O)O)[C@@H](O)CCCC(=O)O [LTC4, leukotriene C4] | selectively increases | – | – | – | – | – | – | – | – | – | – | – | – | – | – | – | –
NC(N)=NCCC[C@H](NC(=O)[C@H](Cc1ccccc1)NC(=O)[C@@H]1CCCN1C(=O)[C@H](CO)NC(=O)[C@H](Cc1ccccc1)NC(=O)CNC(=O)[C@@H]1CCCN1C(=O)[C@@H]1CCCN1C(=O)[C@@H](N)CCCN=C(N)N)C(=O)O [bradykinin] (H-RPPGFSPFR-OH) | – | did not increase | 5.31 ± 1.50 µL/g/min | not significantly increased | diminished | 8.4 fold | 26.46 ± 2.64 µL/g/min | 14.33 ± 2.96 µL/g/min | 3.89 ± 0.74 µL/g/min | did not increase | 3.1 fold | – | – | – | – | – | –
CCCOc1ccccc1-c1nc2nn[nH]c2c(=O)[nH]1 [zaprinast, 2-(2-propyloxyphenyl)-8-azapurin-6-one] | – | – | – | – | negligible | – | – | – | – | – | – | significantly prolonged | did not increase | did not change | 31.4 µL/g/min | not | not soluble

Source: patent publication US6043223A, “Enhanced opening of abnormal brain tissue capillaries” (priority 1997, dated 2000)
